Measured values reported in US20080318943A1, “Compounds and Uses Thereof - 848” (ASTRAZENECA AB, priority 2007, published 2008).

How the values were obtained:
[1] = target: T1, GABAA2 receptors (α2, β3, γ2 receptor subunits transfected into Sf9 cells) (Homo sapiens, UniProt P18507+P47869); assay: GABAA2 Binding Method ([3H]-Flunitrazepam displacement); details: [3H]-Flunitrazepam ~2 nM, α2β3γ2 Sf9 membranes, 1 hr at 4° C.
T1 construct: host or cells: Sf9 cells (membranes)
Summary of the method: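 Displacement of [3H]-flunitrazepam (~2 nM in assay) from recombinant human α2β3γ2 receptors in Sf9 membranes; 1 h incubation at 4 °C, harvest by filtration. Values reported as percent of control, IC50 and Ki.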

[2] = target: T2, GABAA receptor α1β2γ2 (Homo sapiens, UniProt P14867+P18507); assay: Two-electrode voltage-clamp potentiation of GABA EC10 current in Xenopus oocytes, GABAA1; type: cell-based; details: percentage potentiation of GABA EC10 current divided by that of diazepam
T2 construct: expressed in transfected cells; host or cells: Xenopus laevis oocytes injected with cRNA
Summary of the method: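 Human GABAA receptors expressed in Xenopus oocytes by cRNA injection (α:β:γ molar ratio ~1:1:10 for α1β2γ2, 1:1:1 for α2β3γ2), recorded 2-10 days later by two-electrode voltage clamp at −60 mV in ND-96, pH 7.5. Modulator preapplied 30 s before GABA at per-oocyte EC10. Peak-current percent potentiation over GABA alone, normalised to diazepam.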

[3] = target: T3, GABAA receptor α2β3γ2 (Homo sapiens, UniProt P18507+P47869); assay: Two-electrode voltage-clamp potentiation of GABA EC10 current in Xenopus oocytes, GABAA2; type: cell-based; details: percentage potentiation of GABA EC10 current divided by that of diazepam
T3 construct: expressed in transfected cells; host or cells: Xenopus laevis oocytes injected with cRNA
Method: GABAA receptors were heterologously expressed in Xenopus oocytes by injecting cRNA corresponding to human α1, α2, α3, α5, β2, P3 and γ2 subunits of the GABAA receptor genes. The specific subunit combinations (subtypes) were as follows: α1β2γ2, α2β3γ2, α3β3γ2, and α5β3γ2. The EC10 of GABA is approximated for each cell. Stability of GABA-mediated (EC10) current is established. Modulatory effect of test compound is determined and compared across subtypes. […] Thus, the assay can characterize modulatory effects and determine subtype selectivity of test compounds on major subtypes of GABAA receptors.
Xenopus laevis frogs (Xenopus I, Kalamazoo, Mich.) were anesthetized using 0.15% tricaine. Surgically removed ovarian lobes were teased out in OR2 solution (82 NaCl, 2.5 KCl, 5 HEPES, 1.5 NaH2PO4, 1 MgCl2, 0.1 EDTA, in mM, pH 7.4). The oocytes were defolliculated by incubation in 25 mL OR2 containing 0.2% collagenase 1A (SIGMA) two times for about 60 minutes on a platform shaker and stored in Leibovitz's L-15 medium. Oocytes were injected the following day in 0.5× Leibovitz's L-15 medium containing […] gentamycin, 10 units/ml penicillin, and […] streptomycin.
Capped cRNAs from the linearized vectors containing human α1, β2 and γ2 subunits of the GABAA receptor genes were mixed in ratio of […]. Oocytes were injected with 25-50 nL of mixed RNA with an appx molar ratio for α1, β2, and γ2 as 1:1:10. Oocyte recordings were done 2-10 days after injection. The same methods apply to subtypes derived from α2β3γ2, α3β3γ2, and α5β3γ2, except for 1:1:1 ratio was used for α, β, and γ subunits.
All measurements were done in a medium containing ND-96 (96 NaCl, 2 KCl, 1.8 CaCl2.2H2O, 1 MgCl2.6H2O, 5 HEPES, in mM, pH 7.5). Two-electrode voltage-clamp recording was carried out using OpusXpress amplifier (Axon Instruments, Foster City, Calif.), which allows simultaneous recording from 8 oocytes. Oocytes were impaled with two electrodes of 1-2 MΩ tip resistance when filled with 3M KCl. Recordings were begun when membrane potential became stable at potentials negative to −50-−60 mV. Membrane potential was held at −60 mV. […] The concentration of GABA corresponded to the EC10 value calculated for each oocyte. The modulator pulses started 30 s before the GABA pulse so as to allow preincubation with the modulator. A set of 3 pulses with just GABA without modulator was given prior to the modulator-containing pulses to define the baseline GABA response. Two oocytes per each experiment were dedicated to observe the effect of diazepam on GABA response to ensure the presence of γ2 subunit in the GABAA pentameric complex, which imparts diazepam sensitivity to the complex.
Current amplitude (i) was measured from baseline to peak using Clampfit (Axon Inst., Foster City, Calif.). Potentiation was calculated as percent change from the baseline GABA current flux 100×(imod/icontrol)−1) where imod=current mediated by modulator+GABA and icontrol=current mediated by GABA alone. […] Similarly, a value of −50% potentiation means the presence of modulator caused a 50% decrease in the control current. Various other data shown here were fitted and plotted using GraphPad Prism (GraphPad Software, Inc. San Diego, Calif.). The percentage potentiation was converted to relative potentiation by dividing it with percentage potentiation value obtained from the same assay with diazepam as a control.

T3 sequence (P47869 29-451): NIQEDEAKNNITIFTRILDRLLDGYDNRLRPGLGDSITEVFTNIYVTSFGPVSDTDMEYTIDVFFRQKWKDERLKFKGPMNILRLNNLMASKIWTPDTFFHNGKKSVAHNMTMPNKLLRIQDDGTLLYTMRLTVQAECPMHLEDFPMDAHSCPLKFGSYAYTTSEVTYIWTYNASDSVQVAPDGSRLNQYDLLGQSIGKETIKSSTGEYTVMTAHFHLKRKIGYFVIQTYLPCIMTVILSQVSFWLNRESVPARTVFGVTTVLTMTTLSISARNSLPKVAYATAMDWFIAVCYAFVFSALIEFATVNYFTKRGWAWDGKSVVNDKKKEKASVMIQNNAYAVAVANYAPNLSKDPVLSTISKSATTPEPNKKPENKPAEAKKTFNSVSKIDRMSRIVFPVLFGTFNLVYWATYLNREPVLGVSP
T3 sequence (P28472 26-473 partner): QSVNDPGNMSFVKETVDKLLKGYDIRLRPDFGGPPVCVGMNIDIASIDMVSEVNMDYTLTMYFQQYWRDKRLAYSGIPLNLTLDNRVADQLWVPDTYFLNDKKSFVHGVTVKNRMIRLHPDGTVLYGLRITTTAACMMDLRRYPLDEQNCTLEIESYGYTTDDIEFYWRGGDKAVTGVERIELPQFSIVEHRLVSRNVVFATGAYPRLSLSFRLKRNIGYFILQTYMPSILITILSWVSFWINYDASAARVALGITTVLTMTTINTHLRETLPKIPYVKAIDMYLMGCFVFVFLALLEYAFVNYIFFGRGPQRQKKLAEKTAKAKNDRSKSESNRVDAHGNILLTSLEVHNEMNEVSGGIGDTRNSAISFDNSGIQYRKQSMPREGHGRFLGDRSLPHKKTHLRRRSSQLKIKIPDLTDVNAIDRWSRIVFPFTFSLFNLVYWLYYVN
T3 sequence (P18507 40-475): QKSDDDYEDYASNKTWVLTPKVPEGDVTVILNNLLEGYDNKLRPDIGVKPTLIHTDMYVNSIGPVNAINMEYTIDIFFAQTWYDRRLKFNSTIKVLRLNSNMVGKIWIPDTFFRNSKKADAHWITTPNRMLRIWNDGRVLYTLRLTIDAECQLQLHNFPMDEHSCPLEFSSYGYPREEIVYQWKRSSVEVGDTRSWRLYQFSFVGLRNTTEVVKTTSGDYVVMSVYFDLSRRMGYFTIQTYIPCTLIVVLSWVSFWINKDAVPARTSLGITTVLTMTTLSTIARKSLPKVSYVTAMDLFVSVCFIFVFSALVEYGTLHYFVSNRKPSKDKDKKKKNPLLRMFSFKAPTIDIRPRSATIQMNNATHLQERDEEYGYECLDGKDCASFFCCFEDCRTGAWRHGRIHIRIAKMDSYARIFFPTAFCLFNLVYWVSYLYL
T1 sequence (P47869 29-451): as the sequence (P47869 29-451) above
T1 sequence (P28472 26-473 partner): as the sequence (P28472 26-473 partner) above
T1 sequence (P18507 40-475): as the sequence (P18507 40-475) above
T2 sequence (P14867 28-456): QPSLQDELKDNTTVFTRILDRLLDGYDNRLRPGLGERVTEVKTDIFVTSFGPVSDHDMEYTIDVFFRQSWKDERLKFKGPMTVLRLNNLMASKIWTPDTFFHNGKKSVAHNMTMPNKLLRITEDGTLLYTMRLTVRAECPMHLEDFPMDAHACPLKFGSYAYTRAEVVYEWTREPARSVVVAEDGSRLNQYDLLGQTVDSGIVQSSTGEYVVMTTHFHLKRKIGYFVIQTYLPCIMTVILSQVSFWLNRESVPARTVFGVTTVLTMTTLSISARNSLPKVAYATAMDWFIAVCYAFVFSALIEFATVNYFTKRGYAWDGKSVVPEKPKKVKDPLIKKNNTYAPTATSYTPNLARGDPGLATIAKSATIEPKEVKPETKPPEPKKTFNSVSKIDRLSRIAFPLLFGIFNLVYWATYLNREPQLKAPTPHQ
T2 sequence (P47870 25-512 partner limits assumed): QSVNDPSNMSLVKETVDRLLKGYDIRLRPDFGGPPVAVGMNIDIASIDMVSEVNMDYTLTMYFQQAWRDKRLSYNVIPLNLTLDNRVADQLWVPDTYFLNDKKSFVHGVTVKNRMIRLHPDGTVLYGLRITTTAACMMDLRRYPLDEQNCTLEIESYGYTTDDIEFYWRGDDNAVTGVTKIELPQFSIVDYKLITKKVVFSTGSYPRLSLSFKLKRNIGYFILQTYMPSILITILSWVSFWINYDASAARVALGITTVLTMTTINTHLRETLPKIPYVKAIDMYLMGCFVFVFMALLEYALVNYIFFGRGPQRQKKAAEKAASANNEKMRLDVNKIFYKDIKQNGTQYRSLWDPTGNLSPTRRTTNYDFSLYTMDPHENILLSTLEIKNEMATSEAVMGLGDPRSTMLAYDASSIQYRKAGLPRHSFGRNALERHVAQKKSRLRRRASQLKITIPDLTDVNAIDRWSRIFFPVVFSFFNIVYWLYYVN
T2 sequence (P18507 40-475): as the sequence (P18507 40-475) above

COc1cccc(Cl)c1-c1cccc2c(N)c3c(nc12)CN(C1CC1)C3=O [9-amino-5-(2-chloro-6-methoxyphenyl)-2-cyclopropyl-2,3-dihydro-1H-pyrrolo[3,4-b]quinolin-1-one]
Ki [1]: 14.9 nM
Relative Potentiation for GABAA1 [2]: −0.1
Relative Potentiation for GABAA2 [3]: 0.052

COc1ccccc1-c1cccc2c(N)c3c(nc12)CN(C1CCC1)C3=O [Example 63, 9-Amino-2-cyclobutyl-5-(2-methoxyphenyl)-2,3-dihydropyrrolo[3,4-b]quinolin-1-one]
Ki [1]: 3.52 nM
Relative Potentiation for GABAA1 [2]: 0.038
Relative Potentiation for GABAA2 [3]: 0.25

COc1cccc(F)c1-c1cccc2c(N)c3c(nc12)CN([C@H]1C[C@@H](C)C1)C3=O
Ki [1]: 0.945 nM
Relative Potentiation for GABAA1 [2]: 0.054
Relative Potentiation for GABAA2 [3]: 0.39

COc1ccc(-c2cccc3c(N)c4c(nc23)CN(C2CCCC2)C4=O)cn1 [Example 147, 9-Amino-2-cyclopentyl-5-(6-methoxypyridin-3-yl)-2,3-dihydropyrrolo[3,4-b]quinolin-1-one]
Ki [1]: 31.6 nM
Relative Potentiation for GABAA1 [2]: 0.016
Relative Potentiation for GABAA2 [3]: 0.23

Nc1c2c(nc3c(-c4ccccc4F)cccc13)CN(C1CCC1)C2=O [Example 124, 9-Amino-2-cyclobutyl-5-(2-fluorophenyl)-2,3-dihydropyrrolo[3,4-b]quinolin-1-one]
Ki [1]: 0.945 nM
Relative Potentiation for GABAA1 [2]: −0.016
Relative Potentiation for GABAA2 [3]: 0.14

CCCN1Cc2nc3c(-c4cc(C)ccc4OC)cccc3c(N)c2C1=O [9-amino-5-(2-methoxy-5-methylphenyl)-2-propyl-2,3-dihydro-1H-pyrrolo[3,4-b]quinolin-1-one]
Ki [1]: 47.2 nM
Relative Potentiation for GABAA1 [2]: 0.17
Relative Potentiation for GABAA2 [3]: 0.37

COc1cc(F)c(-c2cccc3c(N)c4c(nc23)CN(C2CCC2)C4=O)c(F)c1 [9-Amino-2-cyclobutyl-5-(2,6-difluoro-4-methoxyphenyl)-2,3-dihydropyrrolo[3,4-b]quinolin-1-one]
Ki [1]: 1.43 nM
Relative Potentiation for GABAA1 [2]: −0.023
Relative Potentiation for GABAA2 [3]: 0.13

CCN1Cc2nc3c(-c4cccc(OC)c4F)cccc3c(N)c2C1=O [Example 33, 9-Amino-2-ethyl-5-(2-fluoro-3-methoxyphenyl)-2,3-dihydropyrrolo[3,4-b]quinolin-1-one]
Ki [1]: 9.93 nM
Relative Potentiation for GABAA1 [2]: 0.01
Relative Potentiation for GABAA2 [3]: 0.21

CCN1Cc2nc3c(-c4cc(OC)ccc4F)cccc3c(N)c2C1=O [Example 72, 9-Amino-2-ethyl-5-(2-fluoro-5-methoxyphenyl)-2,3-dihydropyrrolo[3,4-b]quinolin-1-one]
Ki [1]: 13.3 nM
Relative Potentiation for GABAA1 [2]: 0.02
Relative Potentiation for GABAA2 [3]: 0.12

COc1cccc(-c2c(F)ccc3c(N)c4c(nc23)CN(C2CC2)C4=O)c1F [9-Amino-2-cyclopropyl-6-fluoro-5-(2-fluoro-3-methoxyphenyl)-2,3-dihydropyrrolo[3,4-b]quinolin-1-one]
Ki [1]: 2.68 nM
Relative Potentiation for GABAA1 [2]: 0.032
Relative Potentiation for GABAA2 [3]: 0.13

COc1ccc(CN2Cc3nc4c(-c5ccc(Cl)nc5)cccc4c(N)c3C2=O)cc1OC [Example 8, 9-Amino-5-(6-chloropyridin-3-yl)-2-(3,4-dimethoxybenzyl)-2,3-dihydropyrrolo[3,4-b]quinolin-1-one]
Ki [1]: 45.9 nM
Relative Potentiation for GABAA1 [2]: 0.013
Relative Potentiation for GABAA2 [3]: 0.07

Nc1c2c(nc3c(-c4ccccc4F)cccc13)CN(C1CC1)C2=O [9-Amino-2-cyclopropyl-5-(2-fluorophenyl)-2,3-dihydropyrrolo[3,4-b]quinolin-1-one]
Ki [1]: 18.3 nM
Relative Potentiation for GABAA1 [2]: −0.024
Relative Potentiation for GABAA2 [3]: 0.16

COc1cc(-c2cccc3c(N)c4c(nc23)CN(C2CCC2)C4=O)c(F)cn1 [9-Amino-2-cyclobutyl-5-(5-fluoro-2-methoxypyridin-4-yl)-2,3-dihydropyrrolo[3,4-b]quinolin-1-one]
Ki [1]: 6.7 nM
Relative Potentiation for GABAA1 [2]: 0.065
Relative Potentiation for GABAA2 [3]: 0.33

Cc1cc(-c2cccc3c(N)c4c(nc23)CN(C2CCC2)C4=O)cnc1F [9-Amino-2-cyclobutyl-5-(6-fluoro-5-methylpyridin-3-yl)-2,3-dihydropyrrolo[3,4-b]quinolin-1-one]
Ki [1]: 8.54 nM
Relative Potentiation for GABAA1 [2]: 0.018
Relative Potentiation for GABAA2 [3]: 0.2

CCCN1Cc2nc3c(-c4cccc(C)c4)cccc3c(N)c2C1=O [9-amino-2-propyl-5-(3-methylphenyl)-2,3-dihydro-1H-pyrrolo[3,4-b]quinolin-1-one]
Ki [1]: 44.6 nM
Relative Potentiation for GABAA1 [2]: 0.38
Relative Potentiation for GABAA2 [3]: 0.29

Nc1c2c(nc3c(-c4ccccn4)cccc13)CN(C1CCC1)C2=O [9-Amino-2-cyclobutyl-5-pyridin-2-yl-2,3-dihydropyrrolo[3,4-b]quinolin-1-one]
Ki [1]: 4.66 nM
Relative Potentiation for GABAA1 [2]: 0.061
Relative Potentiation for GABAA2 [3]: 0.12

COc1ccc(F)cc1-c1c(F)ccc2c(N)c3c(nc12)CN(C1CCC1)C3=O [9-Amino-2-cyclobutyl-6-fluoro-5-(5-fluoro-2-methoxyphenyl)-2,3-dihydropyrrolo[3,4-b]quinolin-1-one]
Ki [1]: 0.333 nM
Relative Potentiation for GABAA1 [2]: 0.11
Relative Potentiation for GABAA2 [3]: 0.26

Cc1ccc(-c2cccc3c(N)c4c(nc23)CN(C2CCC2)C4=O)c(F)n1 [9-Amino-2-cyclobutyl-5-(2-fluoro-6-methylpyridin-3-yl)-2,3-dihydropyrrolo[3,4-b]quinolin-1-one]
Ki [1]: 4.26 nM
Relative Potentiation for GABAA1 [2]: −0.017
Relative Potentiation for GABAA2 [3]: 0.3

CCN1Cc2nc3c(-c4ccccc4F)c(F)ccc3c(N)c2C1=O [9-amino-2-ethyl-6-fluoro-5-(2-fluorophenyl)-2,3-dihydro-1H-pyrrolo[3,4-b]quinolin-1-one]
Ki [1]: 1.51 nM
Relative Potentiation for GABAA1 [2]: −0.04
Relative Potentiation for GABAA2 [3]: 0.038

COc1ccc(-c2c(F)ccc3c(N)c4c(nc23)CN(C2CCC2)C4=O)c(C)n1 [9-Amino-2-cyclobutyl-6-fluoro-5-(6-methoxy-2-methylpyridin-3-yl)-2,3-dihydropyrrolo[3,4-b]quinolin-1-one]
Ki [1]: 1.14 nM
Relative Potentiation for GABAA1 [2]: 0.042
Relative Potentiation for GABAA2 [3]: 0.19

COc1ccc(Cl)cc1-c1cccc2c(N)c3c(nc12)CN(C1CCC1)C3=O [Example 49, 9-Amino-5-(5-chloro-2-methoxyphenyl)-2-cyclobutyl-2,3-dihydropyrrolo[3,4-b]quinolin-1-one]
Ki [1]: 2.53 nM
Relative Potentiation for GABAA1 [2]: 0.12
Relative Potentiation for GABAA2 [3]: 0.58

COc1ccc(-c2cccc3c(N)c4c(nc23)CN(C2CCC2)C4=O)c(C)n1 [9-Amino-2-cyclobutyl-5-(6-methoxy-2-methylpyridin-3-yl)-2,3-dihydropyrrolo[3,4-b]quinolin-1-one]
Ki [1]: 5.03 nM
Relative Potentiation for GABAA1 [2]: −0.0033
Relative Potentiation for GABAA2 [3]: 0.2
